The source of these data is US20240254066A1, “RESCORCINOLS, METHODS FOR THEIR MANUFACTURE, AND USES THEREOF” (GW Research Limited, priority 2021, published 2024).

The subject of this series is tonic hind limb extensor convulsions (mouse model of generalised seizure). Briefly: mini-MEST (maximal electroshock seizure threshold) test in the mouse. As to conditions: for change in vivo at 5 mg/kg / change in vivo at 50 mg/kg / change in vivo at 25 mg/kg: Mus musculus, ip, change in CC50; for change in vivo at 5 mg/kg: 0.25 h, read-out: % change from vehicle, 5 mg/kg i.p., 15 min post dose; for change in vivo at 50 mg/kg / change in vivo at 25 mg/kg: 0.5 h; for change in vivo at 50 mg/kg: read-out: % change from vehicle, 50 mg/kg i.p., 30 min post dose; for change in vivo at 25 mg/kg: read-out: % change from vehicle, 25 mg/kg i.p., 30 min post dose. The procedure:
The efficacy of novel resorcinols 2, 3, 5, 8, 10, 15, 16, 17, 18, 19, 41 45, 46, 53, 56 and 58 were tested in a novel mouse model of generalised seizure, the mini-MEST (maximal electroshock seizure threshold) test, which uses lower n numbers than typically used.
The maximal electroshock seizure threshold (MEST) test is widely utilized preclinically to evaluate pro- or anti-convulsant properties of test compounds (Loscher et al., 1991).
In the MEST test the ability of a drug to alter the seizure threshold current required to induce hind limb tonic extensor convulsions is measured according to an “up and down” method of shock titration (Kimball et al., 1957). An increase in seizure threshold is indicative of anti-convulsant effect.
The ability of a test compound to alter the stimulus intensity, expressed as current (mA), required to induce the presence of tonic hind limb extensor convulsions, is assessed in the MEST.
Naïve mice were acclimatised to the procedure room in their home cages for up to 7 days, with food and water available ad libitum.
All animals were weighed at the beginning of the study and randomly assigned to treatment groups based on a mean distribution of body weight across groups.
The first animal within a treatment group was given a shock at the expected or estimated CC50 current. For subsequent animals, the current was lowered or raised depending on the convulsions outcome from the preceding animal in log scale intervals.
Data generated from each treatment group were used to calculate the CC50±SEM values for the treatment group.
Vehicle: (5% ethanol, 10% solutol in 85% Saline) was prepared as follows: 1 mL of ethanol, 2 mL of solutol were warmed to 60° C., in 17 mL of saline (1:2:17).
The test compounds used were 2, 3, 5, 8, 10, 15, 16, 17, 18, 19, 41, 45, 46, 53, 56 and 58 Test compounds were administered at 5-50 mg/kg (i.p.) in a 1:2:17 ethanol:solutol:saline formulation.
Test compound effects were also calculated as percentage change in CC50 from the vehicle control group.
Significant difference between drug-treated animals and controls were assessed according to Litchfield and Wilcoxon (1949).
(In the maximal electroshock model the usual endpoint is tonic extension of the hind limbs.)

[1] abbreviates: 5 mg/kg i.p., test 15 min post dose.
Where [2] appears, read: 50 mg/kg i.p., test 30 min post dose.
Where [3] appears, read: 25 mg/kg i.p., test 30 min post dose.

Regarding `C=C(C)[C@@H]1C[C@H](O)C(C)=C[C@H]1c1c(O)cc(-c2ccc(OC)cc2)cc1O` [Compound 33, (1R,2R,4S)-4″-Methoxy-5-methyl-2-(prop-1-en-2-yl)-1,2,3,4-tetrahydro-[1,1′:4′,1″-terphenyl]-2′,4,6′-triol], the change in vivo at 5 mg/kg stood at 47% and the change in vivo at 50 mg/kg worked out at 200%. For the same molecule, the “CC50 +/− SEM” value under setting [1] is 38.8 ± 1.4 mA. In addition, the “CC50 +/− SEM” value under setting [2] came out at 79.5 ± 0.9 mA.
Consider `C=C(C)[C@@H]1C[C@H](O)C(C)=C[C@H]1c1c(O)cc(-c2cccnc2OC)cc1O` [Compound 35, (1′R,2′R,4′S)-4-(2-Methoxypyridin-3-yl)-5′-methyl-2′-(prop-1-en-2-yl)-1′,2′,3′,4′-tetrahydro-[1,1′-biphenyl]-2,4′,6-triol], for which the change in vivo at 5 mg/kg came out at 62% and the change in vivo at 50 mg/kg is 457%. In addition, the “CC50 +/− SEM” value under setting [1] is listed as 38.0 ± 1.9 mA. Further, under setting [2], the “CC50 +/− SEM” value is listed as above 131.0 mA.
On to `C=C(C)[C@@H]1C[C@H](O)C(C)=C[C@H]1c1c(O)cc(-c2ccc3c(c2)OCO3)cc1O` [Compound 41, (1′R,2′R,4′S)-4-(Benzo[d][1,3]dioxol-5-yl)-5′-methyl-2′-(prop-1-en-2-yl)-1′,2′,3′,4′-tetrahydro-[1,1′-biphenyl]-2,4′,6-triol], for which the change in vivo at 5 mg/kg stood at 91% and the change in vivo at 50 mg/kg was above 394%. Further, the “CC50 +/− SEM” value under setting [1] is listed as 50.5 ± 0.7 mA. The “CC50 +/− SEM” value under setting [2] is above 131.0 mA.
As to `C=C(C)[C@@H]1C[C@H](O)C(C)=C[C@H]1c1c(O)cc(-c2cccc3c2OCO3)cc1O` [Compound 42, (1′R,2′R,4′S)-4-(Benzo[d][1,3]dioxol-4-yl)-5′-methyl-2′-(prop-1-en-2-yl)-1′,2′,3′,4′-tetrahydro-[1,1′-biphenyl]-2,4′,6-triol], the change in vivo at 50 mg/kg was 457%. Also, the “CC50 +/− SEM” value under setting [2] is above 131.0 mA.
For the molecule `C=C(C)[C@@H]1C[C@H](O)C(C)=C[C@H]1c1c(O)cc(CCC)c(F)c1O` [Compound 45, (1′R,2′R,4′S)-3-fluoro-5′-methyl-2′-(prop-1-en-2-yl)-4-propyl-1′,2′,3′,4′-tetrahydro-[1,1′-biphenyl]-2,4′,6-triol], the change in vivo at 5 mg/kg came to 58%. Besides, the “CC50 +/− SEM” value under setting [1] was 35.5 +/− 0.5 mA.
As to `C=C(C)[C@@H]1C[C@H](O)C(C)=C[C@H]1c1c(O)cc(CCC)c(Cl)c1O` [Compound 46, (1′R,2′R,4′S)-3-chloro-5′-methyl-2′-(prop-1-en-2-yl)-4-propyl-1′,2′,3′,4′-tetrahydro-[1,1′-biphenyl]-2,4′,6-triol], the change in vivo at 50 mg/kg came to 217%. For the same molecule, the “CC50 +/− SEM” value under setting [2] is 84.0 ± 3.4 mA.
With `C=C(C)[C@@H]1C[C@H](O)C(C)=C[C@H]1c1c(O)cc(Br)c(Cl)c1O` [Compound 47, (1′R,2′R,4′S)-4-bromo-3-chloro-5′-methyl-2′-(prop-1-en-2-yl)-1″,2″,3′,4′-tetrahydro-[1,1′-biphenyl]-2,4′,6-triol], the change in vivo at 25 mg/kg is 238%. Further, the “CC50 +/− SEM” value under setting [3] is 79.5 ± 10.0 mA.
Consider `C=C(C)[C@@H]1C[C@H](O)C(C)=C[C@H]1c1c(O)cc(-c2cccc(OC)c2)c(Cl)c1O` [Compound 49, (1R,2R,4S)-3′-Chloro-3″-methoxy-5-methyl-2-(prop-1-en-2-yl)-1,2,3,4-tetrahydro-[1,1′:4′,1″-terphenyl]-2′,4,6′-triol], for which the change in vivo at 50 mg/kg is 244%. In addition, the “CC50 +/− SEM” value under setting [2] was determined as 97.5 ± 1.3 mA.
On to `C=C(C)[C@@H]1C[C@H](O)C(C)=C[C@H]1c1c(O)c(C)c(-c2ccnc(OC)c2)c(C)c1O` [Compound 52, (1′R,2′R,4′S)-4-(2-Methoxypyridin-4-yl)-3,5,5′-trimethyl-2′-(prop-1-en-2-yl)-1′,2′,3′,4′-tetrahydro-[1,1′-biphenyl]-2,4′,6-triol], for which the change in vivo at 5 mg/kg is 9% and the change in vivo at 50 mg/kg is 170%. The “CC50 +/− SEM” value under setting [1] is on record as 31.0 ± 4.5 mA. The “CC50 +/− SEM” value under setting [2] is listed as 76.5 ± 2.6 mA.
For the molecule `C=C(C)[C@@H]1C[C@H](OC)C(C)=C[C@H]1c1c(O)cc(CCC)cc1O` [Compound 53, (1′R,2′R,4′S)-4′-Methoxy-5′-methyl-2′-(prop-1-en-2-yl)-4-propyl-1′,2″,3′,4′-tetrahydro-[1,1′-biphenyl]-2,6-diol], the change in vivo at 25 mg/kg was 29%. For the same molecule, under setting [3], the “CC50 +/− SEM” value is 29.0 +/− 1.5 mA.
As for `C=C(C)[C@@H]1C[C@H](O)C(C)=C[C@H]1c1c(O)cc(-c2ccnc(C(F)(F)F)c2)cc1O` [Compound 58, (1′R,2′R,4′S)-5′-Methyl-2′-(prop-1-en-2-yl)-4-(2-(trifluoromethyl)pyridin-4-yl)-1′,2′,3′,4′-tetrahydro-[1,1′-biphenyl]-2,4′,6-triol], the change in vivo at 50 mg/kg amounted to 234%. In addition, the “CC50 +/− SEM” value under setting [2] is given as 88.5 ± 1.3 mA.
